Results as given in US11612606B2, “8-aminoisoquinoline compounds and uses thereof” (priority 2018, dated 2023).
Read-outs that look alike come from different tables or passages of the source.

Columns and labels:
[1] = target: HPK full length, T165E S171E (Homo sapiens (Human), UniProt Q92918, S171E/T165E); experiment: HPK1-FL HTRF enzymatic assay ("HTRF"); format: biochemical; conditions: ATP 1 mM, read-out: HPK1 Ki
Procedure, shortened: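 Full-length HPK1 (T165E/S171E) was preincubated 30 min with compound, then reacted 60 min with biotin-SLP-76 and 1 mM ATP. Phospho-SLP-76 was detected by HTRF (Eu-anti-pSLP76 antibody, SA-XL665) after a further 60 min.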

[2] = tested on: gMDCKI cell line; experiment: Permeability assay in gMDCKI cells; format: in vitro ADME, canine; conditions: apical-to-basolateral, 10 μM, 2-hour incubation
Description: (§1) Cell permeability of compounds of interest was assessed in the gMDCKI cell line, which is a modified MDCKI (Madin-Darby canine kidney) originally acquired from American Type Culture Collection (Manassa, Va.) and generated at Genentech. […] Test article was tested at 10 μM in the apical-to-basolateral (A-B) and basolateral-to-apical (B-A) directions. Test compound was dissolved in transport buffer consisting of Hank's balanced salt solution and […] (Invitrogen Corporation, Grand Island, N.Y.). Transepithelial electrical resistance (TEER) and lucifer yellow (LY) permeability were used to monitor monolayer integrity at the beginning and the end of the experiments, respectively. Test articles were analyzed by LC-MS/MS.
(§2) The efflux ratio (ER) is calculated as (Papp, B−A/Papp, A−B).
(§3) Cell permeability were assessed for exemplary compounds of Formula (I).

[3] = tested on: phosphorylation of SLP-76 (S376) by HPK-1 in human Jurkat cells; experiment: pSLP76 assay (sandwich ELISA, anti-CD3 stimulated Jurkat cells); format: cell-based; conditions: Jurkat cells, anti-CD3 stimulation, read-out: pSLP76 IC50
Description: Phospho-SLP76 (S376) is detected by sandwich ELISA using an anti-pSLP76(S376) capture antibody and a biotinylated anti-SLP76 detection antibody.
Incubate Jurkat cells with varying concentrations of test compounds for 30 minutes in a humidified incubator at 37° C. and 5% CO2. Add anti-CD3 DynaBeads at a 4:1 bead:cell ratio. Stimulate cells in a humidified incubator at 37° C. and 5% CO2 for 10 minutes. Add cold lysis buffer and incubate on a shaker at 4° C. for 30 minutes. Transfer cell lysates to a pre-blocked ELISA plate coated with capture antibody. Incubate at room temperature shaking for 2 hours. Wash ELISA plate 5× with wash buffer and add 25 μl of biotinylated detection antibody at a final concentration of 0.5 μg/ml. Incubate at room temperature shaking for 1 hour. Wash ELISA plate 5× with wash buffer and add 25 μl of streptavidin enzyme conjugate at a final dilution of 1:8000. Incubate at room temperature shaking for 20 minutes. Wash ELISA plate 5× with wash buffer and add 25 μl of TMB substrate solution. Incubate at room temperature in the dark shaking for 20 minutes. Add 25 μl of STOP solution and read on SoftMax Pro for absorbance at 450 nm.
Exemplary compounds of Formula (I) were tested in pSLP76 assays.

[4] = Pharmacokinetic study in rat; format: in vivo, Sprague Dawley rat; conditions: 10% DMSO/60% PEG400/30% Water, Solution
Description: Pharmacokinetic Study in Rat: Male Sprague Dawley rats obtained from Lingchang/Vital River Laboratory Animal Technology Co., Ltd., (Shanghai/Beijing, P.R. China) with body weight ranging between 200 g to 300 g were use in the PK studies. Group of 3 rats were given a 1 mg/kg intravenous bolus (IV) dose of the test article in solution formulation, and another group of 3 rats were given a 2 or 5 mg/kg oral (PO) dose of test article as a 0.5% methylcellulose with 0.2% Tween 80 (MCT) suspension or as a solution. Blood samples (250 μL, per time point) were collected serially via the catheter in femoral artery at 0.033, 0.083, 0.25, 0.5, 1, 2, 4, 6, and 8 hours after IV or PO administration from each of the rat. Blood samples were collected into pre-chilled tubes containing Potassium (K2) EDTA and centrifuged at 3,200 g for 10 minutes at 2 to 8° C. within 1 hour of collection to harvest plasma. Plasma samples were stored at −70° C. until LC/MS/MS analysis. Concentration in each plasma sample was determined by a non-validated LC/MS/MS. Data is acquired using multiple reaction monitoring (MRM) with specific transitions monitored for each compound.
Following PO administration, percent bioavailability (% F) was determined for each animal by dividing the dose normalized area under the plasma concentration-time curve, extrapolated to infinity (AUCinf) obtained following each PO dose by the mean dose normalized AUCinf of the animals dosed by IV injection. All PK parameters are presented as mean±standard deviation (SD).
Pharmacokinetic studies were conducted in rat for exemplary compounds of Formula (I).

[5] = tested on: primary human pan T cells; experiment: Human T-cell IL2 induction assay; format: cell-based
[6] = tested on: Cryopreserved human hepatocytes; experiment: Hepatocyte stability assay; format: in vitro ADME; conditions: 1 μM, scaled hepatic clearance
Description: (§4) Metabolic stability of compounds are assessed using a hepatocyte stability assay. Cryopreserved human hepatocytes from a 10 donor pool are quickly thawed at 37° C., suspended in prewarmed In VitroGRO™ HT Medium, and then centrifuged at 100×g at room temperature for 10 min. The supernatants are discarded, and cells are resuspended in 5 mL Dulbecco's Modified Eagle Medium (DMEM) medium. Cell viability in suspension is counted on a Hepatometer® Vision (Lonza, N.C.), and viable cells are then adjusted to […] in DMEM. Compounds are first diluted to 2 μM with DMEM medium, and then aliquots of 125 μL of drug-containing medium are transferred to 96-well non-coated plates. Incubation is initiated by the addition of 125 μL of hepatocyte suspension to yield a total incubation volume of 250 μL. Final concentration of each compound is 1 μM, and final cell density is 0.5×10^6 cells/mL. Incubations are conducted in a humidified incubator at 37° C. Aliquots of 50 μL incubation medium are taken out at different time intervals (0, 60, 120 and 180 min), and immediately mixed with 100 μL of ice-cold acetonitrile containing 50 nM propranolol (internal standard). Samples are then centrifuged at 10,000×g for 10 min, and 80 μL of supernatant is taken out and diluted with 160 μL of water prior to LC/MS-MS analysis.
(§5) Human hepatocyte stability was assessed for exemplary compounds of Formula (I) according to the above procedures.

[7] = Permeability assay in gMDCKI cells; format: in vitro ADME, canine; conditions: dog, MDCK, apical-to-basolateral, 2-hour incubation, read-out: MDCK AB Papp
Description: as §1, §2, §3

[8] = Hepatocyte stability assay; format: in vitro ADME; conditions: cryopreserved human hepatocytes (10 donor pool, suspension), scaled hepatic clearance, read-out: HHep Clearance
Description: as §4, §5

HPK full length, T165E S171E, sequence (Q92918 whole entry T165E/S171E, looked up): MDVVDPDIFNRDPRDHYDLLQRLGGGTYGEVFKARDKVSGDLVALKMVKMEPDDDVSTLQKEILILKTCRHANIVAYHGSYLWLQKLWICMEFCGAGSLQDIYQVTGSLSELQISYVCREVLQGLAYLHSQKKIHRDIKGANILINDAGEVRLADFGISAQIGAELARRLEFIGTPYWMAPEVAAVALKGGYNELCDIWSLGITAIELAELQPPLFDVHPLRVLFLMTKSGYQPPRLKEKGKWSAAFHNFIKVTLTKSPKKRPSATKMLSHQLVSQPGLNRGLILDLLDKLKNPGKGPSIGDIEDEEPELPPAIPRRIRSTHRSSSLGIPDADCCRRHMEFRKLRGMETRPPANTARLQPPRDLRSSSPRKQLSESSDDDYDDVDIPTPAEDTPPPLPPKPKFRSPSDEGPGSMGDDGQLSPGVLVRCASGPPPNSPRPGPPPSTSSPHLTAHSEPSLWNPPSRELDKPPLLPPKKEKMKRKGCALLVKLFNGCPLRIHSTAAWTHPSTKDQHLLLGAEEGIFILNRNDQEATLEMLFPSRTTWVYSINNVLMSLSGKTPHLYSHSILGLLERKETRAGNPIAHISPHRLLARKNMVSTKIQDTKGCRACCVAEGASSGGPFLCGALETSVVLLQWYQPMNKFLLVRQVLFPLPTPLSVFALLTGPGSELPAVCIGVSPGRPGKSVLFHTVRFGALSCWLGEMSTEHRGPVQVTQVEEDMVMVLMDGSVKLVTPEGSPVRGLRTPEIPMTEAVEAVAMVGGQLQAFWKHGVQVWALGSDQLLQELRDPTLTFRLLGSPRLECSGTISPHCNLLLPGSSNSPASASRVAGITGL

Compound	Ki [1] [nM]	MDCK AB Papp [2] [×10⁻⁶ cm/s]	IC50 [3] [nM]	% F ([4]; PO 2 mg/kg) [%]	% IL-2 increase relative to untreated cells ([5]; assayed concentration 1.196 μM) [%]	HHep Clearance [6] [mL/min/kg]	Papp at 2 h, 10 μM [7] [×10⁻⁶ cm/s]	IC50 ([3]; Homo sapiens) [nM]	bioavailability ([4]; male, Sprague Dawley, plasma, PO 5 mg/kg) [%]	% IL-2 increase relative to untreated cells ([5]; assayed concentration 2.778 μM) [%]	CLhep predicted at 1 μM [8] [mL/min/kg]
Cc1c(-c2cc3cc(NC(=O)O[C@H]4C[C@H](C(C)(C)O)C4)ncc3c(N)c2F)cnc2c1NCCO2 [Compound 574a, (1r,3r)-3-(2-Hydroxypropan-2-yl)cyclobutyl (8-amino-7-fluoro-6-(8-methyl-2,3-dihydro-1H-pyrido[2,3-b][1,4]oxazin-7-yl)isoquinolin-3-yl)carbamate]	0.02	12	32	16	1634	8.3	–	–	–	–	–
Cc1c(-c2cc3cc(NC(=O)N4CC(C)(F)C4)ncc3c(N)c2F)cnc2c1NCCO2 [Compound 755, N-(8-Amino-7-fluoro-6-(8-methyl-2,3-dihydro-1H-pyrido[2,3-b][1,4]oxazin-7-yl)isoquinolin-3-yl)-3-fluoro-3-methylazetidine-1-carboxamide]	0.09	–	–	–	–	–	10	46	4	1061	6.8
